This experiment deals with CWR22RV1 cells. The experiment can be described thus: Inhibition of CWR22RV1 cell proliferation (CCK-8). It counts as cell-based. The settings on record: Homo sapiens, CWR22Rv1, 144 h, read-out: IC50 on CWR22RV1. Here is the method:
Test Example 2 Biological Determination of the Inhibitory Effect of the Compound on CWR22RV1 Cell Proliferation
Experimental Materials: • CWR22RV1 cell line (Cell bank of Chinese Academy of Sciences, TCHu100) • FBS (Gibco, Cat. No. 10099-141) • 0.01M PBS (Biosharp, Cat. No. 162262) • RIPM1640 (Hyclone, Cat. No. 308090.01) • Penicillin-Streptomycin (Hyclone, Cat. No. SV30010) • Cell counting kit-8(Signalway Antibody, Cat. No. CP002) • DMSO (Sigma, Cat. No. D5879) • Centrifuge Tube, 15 ml (Excell Bio, Cat. No. CS015-0001) • Cell Culture Dish, (Excell Bio, Cat. No. CS016-0128) • 96-well cell culture cluster (Corning, Cat. No. 3599)
(1) CWR22RV1 cells were subcultured with cell culture medium, and well-growth cells were inoculated in 96-well plates, with 80 μL per well. The number of cells in each well was 1500, and the plate was cultured overnight in a 37° C., 5% CO2 cell incubator.
(2) The drug was prepared as a 30 mM stock solution using dimethyl sulfoxide (DMSO). before use, the stock solution was diluted 3 times with DMSO, and then diluted by a 3 times gradient to obtain 9 concentration gradients. The compound at each concentration was further diluted 200 times with the culture solution (to ensure that the DMSO concentration in the culture system was 0.1%), and each concentration was repeated 2 wells. 20 μL of the diluted compound was added to the cell culture wells (with final concentrations of 10 μM, 3.3 μM, 1.1 μM . . . ), and gently shaked to mix. In addition, three negative control wells containing only cells and three blank control wells containing only culture medium (6 wells each containing 20 μL DMSO 200-fold diluted with culture medium) were set.
(1) After being cultured for 6 days, 10 μL CCK-8 was added to each well, and the cells were further cultured in a 5% CO2 cell incubator at 37° C. for 2.5 hours.
(2) The absorbance (OD value) was measured at 450 nm with a multifunctional microplate reader.
(3) The data were analyzed with the Dose-response-inhibition equation in the software GraphPad Prism6, and IC50 values were obtained.

pIC50: −log10 of the molar value. Read-outs that look alike come from different tables or passages of the source.

Turning to `Cc1sc2c(c1C)C(c1ccc(Cl)cc1)=N[C@@H](Cc1nnc(CCl)o1)c1nnc(C)n1-2` [Compound 4, (S)-2-chloromethyl-5-((4-(4-chlorophenyl)-2,3,9-trimethyl-6H-thieno[3,2-f][1,2,4]triazolo[4,3-a][1,4]diaza-6-yl)methyl)-1,3,4-oxodiazole], under “cultured for 6 days, CCK-8”, the pIC50 is 7.55.
Consider `COCc1nnc(C[C@@H]2N=C(c3ccc(Cl)cc3)c3c(sc(C)c3C)-n3c(C)nnc32)o1` [Compound 5, (S)-2-((4-(4-chlorophenyl)-2,3,9-trimethyl-6H-thieno[3,2-f][1,2,4]triazolo[4,3-a][1,4]diaza-6-yl)methyl)-5-(methoxylmethyl)-1,3,4-oxodiazole], for which the pIC50 (cultured for 6 days, CCK-8) was 7.35.
In the case of `Cc1sc2c(c1C)C(c1ccc(Cl)cc1)=N[C@@H](Cc1nnc(CO)o1)c1nnc(C)n1-2` [Compound 7, (S)-(5-((4-(4-chlorophenyl)-2,3,9-trimethyl-6H-thieno[3,2-f][1,2,4]triazolo[4,3-a][1,4]diaza-6-yl)methyl)-1,3,4-oxodiazole-2-yl)methanol], the pIC50 was 7.05.
`CC(=O)NCc1nnc(C[C@@H]2N=C(c3ccc(Cl)cc3)c3c(sc(C)c3C)-n3c(C)nnc32)o1` [Compound 9, (S)-N-((5-((4-(4-chlorophenyl)-2,3,9-trimethyl-6H-thieno[3,2-f][1,2,4]triazolo[4,3-a][1,4]diaza-6-yl)methyl)-1,3,4-oxodiazole-2-yl)methyl)acetylamine]: for the setting “cultured for 6 days, CCK-8”, the pIC50 is 6.96.
Consider `Cc1sc2c(c1C)C(c1ccc(Cl)cc1)=N[C@@H](Cc1nnc(CNS(C)(=O)=O)o1)c1nnc(C)n1-2` [Compound 10, (S)-N-((5-((4-(4-chlorophenyl)-2,3,9-trimethyl-6H-thieno[3,2-f][1,2,4]triazolo[4,3-a][1,4]diaza-6-yl)methyl) -1,3,4-oxodiazole-2-yl)methyl) methanesulfonamide], for which, where the note is “cultured for 6 days, CCK-8”, the pIC50 was 7.20.
For the compound `C=CC(=O)NCc1nnc(C[C@@H]2N=C(c3ccc(Cl)cc3)c3c(sc(C)c3C)-n3c(C)nnc32)o1` [Compound 11, (S)-N-((5-((4-(4-chlorophenyl)-2,3,9-trimethyl-6H-thieno[3,2-f][1,2,4]triazolo[4,3-a][1,4]diaza-6-yl)methyl)-1,3,4-oxodiazole-2-yl)methyl)acrylamide], under “cultured for 6 days, CCK-8”, the pIC50 was 7.27.
The same measure, in the same setting: with `Cc1sc2c(c1C)C(c1ccc(Cl)cc1)=N[C@@H](Cc1nnc(CN3CCS(=O)(=O)CC3)o1)c1nnc(C)n1-2` [Compound 12, (S)-4-((5-((4-(4-chlorophenyl)-2,3,9-trimethyl-6H-thieno[3,2-f] [1,2,4]triazolo[4,3-a][1,4]diaza-6-yl)methyl)-1,3,4-oxodiazole-2-yl)methyl)thiomorpholine 1,1-dioxide] the figure was 6.96; with `Cc1sc2c(c1C)C(c1ccc(Cl)cc1)=N[C@@H](Cc1nnc(CNCCO)o1)c1nnc(C)n1-2` [Compound 14, (S)-2-(((5-((4-(4-chlorophenyl)-2,3,9-trimethyl-6H-thieno[3,2-f][1,2,4]triazolo[4,3-a][1,4]diaza-6-yl)methyl)-1,3,4-oxodiazole-2-yl)methyl)amino)ethanol], 6.79.
For the compound `COC(=O)C1CCN(Cc2nnc(C[C@@H]3N=C(c4ccc(Cl)cc4)c4c(sc(C)c4C)-n4c(C)nnc43)o2)CC1` [Compound 15, (S)-methyl-1-((5-((4-(4-chlorophenyl)-2,3,9-trimethyl-6H-thieno[3,2-f][1,2,4]triazolo[4,3-a][1,4]diaza-6-yl)methyl) -1,3,4-oxodiazole-2-yl)methyl)piperidin-4-carboxylic ester], the pIC50 (cultured for 6 days, CCK-8) was 7.23.
`Cc1sc2c(c1C)C(c1ccc(Cl)cc1)=N[C@@H](Cc1nnc(CN3CCC(C(=O)O)CC3)o1)c1nnc(C)n1-2` [Compound 16, (5)-1-((5-((4-(4-chlorophenyl)-2,3,9-trimethyl-6H-thieno[3,2-f][1,2,4]triazolo[4,3-a][1,4]diaza-6-yl)methyl)-1,3,4-oxodiazole-2-yl)methyl)piperidin-4-carboxylic acid]: the pIC50 (cultured for 6 days, CCK-8) was 5.58.
Still for that read-out and setting: the figure for `Cc1sc2c(c1C)C(c1ccc(Cl)cc1)=N[C@@H](Cc1nnc(CN3CC(C(=O)O)C3)o1)c1nnc(C)n1-2` [Compound 17, (5)-1-((5-((4-(4-chlorophenyl)-2,3,9-trimethyl-6H-thieno[3,2-f][1,2,4]triazolo[4,3-a][1,4]diaza-6-yl)methyl)-1,3,4-oxodiazole-2-yl)methyl)azacyclobutane-3-carboxylic acid] is 5.62; for `Cc1sc2c(c1C)C(c1ccc(Cl)cc1)=N[C@@H](Cc1nnc(CN3CC(O)C3)o1)c1nnc(C)n1-2` [Compound 18, (5)-1-((5-((4-(4-chlorophenyl)-2,3,9-trimethyl-6H-thieno[3,2-f][1,2,4]triazolo[4,3-a][1,4]diaza-6-yl)methyl)-1,3,4-oxodiazole-2-yl)methyl)azacyclobutane-3-ol] it is 7.05.
As for `Cc1nnc(C[C@@H]2N=C(c3ccc(Cl)cc3)c3c(sc(C)c3C)-n3c(C)nnc32)o1` [Compound 21, (S)-2-((4-(4-chlorophenyl)-2,3 ,9-trimethyl-6H-thieno[3,2-f][1,2,4]triazolo[4,3-a][1,4]diaza-6-yl)methyl)-5-methyl-1,3,4-oxodiazole], the pIC50 was 7.48.
`Cc1sc2c(c1C)C(c1ccc(Cl)cc1)=N[C@@H](Cc1nnc(C(C)(C)C)o1)c1nnc(C)n1-2` [Compound 23, (S)-2-(t-butyl)-5-((4-(4-chlorophenyl)-2,3,9-trimethyl-6H-thieno[3,2-f][1,2,4]triazolo[4,3-a][1,4]diaza-6-yl)methyl) -1,3,4-oxodiazole]: the pIC50 is 6.75.
Take `Cc1sc2c(c1C)C(c1ccc(Cl)cc1)=N[C@@H](Cc1nncn1C(C)C)c1nnc(C)n1-2` [Compound 25, (S)-4-(4-chlorophenyl)-6-((4-isopropyl-4H-1,2,4--3-yl)methyl)-2,3,9-trimethyl-6H-thieno[3,2-f][1,2,4]triazolo[4,3-a][1,4]diazepine]: the pIC50 was 5.88.
Turning to `Cc1sc2c(c1C)C(c1ccc(Cl)cc1)=N[C@@H](Cc1nc(CCl)co1)c1nnc(C)n1-2` [Compound 27, 2-(4-(4-chlorophenyl)-2,3,9-trimethyl-6H-thieno[3,2-f][1,2,4]triazolo[4,3-a][1,4]diaza-6-yl)-4-chloromethyloxazole], the pIC50 was 7.54.
As to `Cc1noc(C[C@@H]2N=C(c3ccc(Cl)cc3)c3c(sc(C)c3C)-n3c(C)nnc32)n1` [Compound 30, (S)-5-((4-(4-chlorophenyl)-2,3,9-trimethyl-6H-thieno[3,2-f][1,2,4]triazolo[4,3-a][1,4]diaza-6-yl)methyl)-3-methyl-1,2,4-oxodiazole], under “cultured for 6 days, CCK-8”, the pIC50 is 7.33.

As a reminder, the pIC50 is the negative decadic logarithm of the IC50, by convention in mol/L.

The record behind these values is patent publication US11572371B2, “BRD4 inhibitor” (HINOVA PHARMACEUTICALS INC., priority 2017, dated 2023).
